Assay results published in patent publication US8168656B2, “Indoleacetic acid and indenacetic acid derivatives as therapeutic agents with reduced gastrointestinal toxicity” (Vanderbilt University, priority 2009, dated 2012).
Like-named read-outs stand apart in the source and are kept apart here.

Experiments:
[1] = test system: HCT-116 cells; experiment: Cell viability assay (WST-1); assay type: cell-based; details: Homo sapiens
Procedure: (§1) RKO and HCT-116 cells (human colorectal cancer cell lines) were cultured in microtiter plates (tissue culture grade, 96-well flat) in a final volume of 100 μl culture medium containing 5-8×10^4 cells and the final concentrations of chemicals (1-500 μM). Cells were incubated in a humidified atmosphere for 8-24 hours. To the cultures, 10 μl of cell proliferation reagent, WST-1 (Roche Applied Science, Indianapolis, Ind., United States of America) was added, and reincubated for 1-2 hours. The absorbance of the samples was determined using a microtiter plate reader at a wavelength of 405-450 nm against background control. Reference wavelength was 620 nm. The tetrazolium salt, WST-1 (4-[3-(4-Iodophenyl)-2-(4-nitrophenyl)-2H-5-tetrazolio]-1,3-benzene disulfonate) was metabolized to formazan by the “succinate-tetrazolium reductase” system, which exists in mitochondria and is active only in viable cells. Thus, the formation of formazan (dark yellow color) is proportional to the viable cell numbers.
(§2) The generated data points were used to calculate ED50 values by creating a sigmoidal dose-response curve using non-linear regression. ED50 valued were calculated using the statistical analysis program PRISM® (GraphPad Software, Inc., San Diego, Calif., United States of America).

[2] = test system: RKO cells; experiment: Cell viability assay (WST-1); assay type: cell-based; details: Homo sapiens
Procedure: as §1, §2

[3] = concentration that reduces cell viability by 50%, read-out: ED50 HCT-116
[4] = concentration that reduces cell viability by 50%, read-out: ED50 RKO
[5] = second part of Table 9, read-out: ED50 HCT-116
[6] = second part of Table 9, read-out: ED50 RKO

Row | Structure (SMILES) | EC50 [1, 3] [µM] | EC50 [1, 5] [µM] | EC50 [2, 4] [µM] | EC50 [2, 6] [µM]
1 | COc1ccc(/C=C2\C=C(CC(=O)NCc3ccccc3)c3cc(F)ccc32)cc1 [Compound 35] | – | 1 ± 0.8 | – | 0.7 ± 0.1
2 | O=C(O)CC1=C/C(=C\c2ccc(Br)cc2)c2ccc(F)cc21 [Compound 37] | – | – | – | > 10
3 | CSc1ccc(/C=C2\C=C(CC(=O)NCc3cccc(Cl)c3)c3cc(F)ccc32)cc1 [Compound 21] | > 3 | – | > 3 | –
4 | CSc1ccc(/C=C2\C=C(CC(=O)NCc3cccc(C(F)(F)F)c3)c3cc(F)ccc32)cc1 [Compound 25] | > 3 | – | > 3 | –
5 | CSc1ccc(/C=C2\C=C(CC(=O)N(C)Cc3ccccc3)c3cc(F)ccc32)cc1 [Compound 6] | > 3 | – | > 3 | –
6 | CSc1ccc(/C=C2\C=C(CC(=O)NCc3cccc(Br)c3)c3cc(F)ccc32)cc1 [Compound 23] | > 3 | – | > 3 | –
7 | CS(=O)(=O)c1ccc(/C=C2\C=C(CC(=O)NCc3ccccc3)c3cc(F)ccc32)cc1 [Compound 33] | – | 1.2 ± 0.3 | – | 0.8 ± 0.1
8 | CSc1ccc(/C=C2\C=C(CC(=O)N[C@H](C)c3ccccc3)c3cc(F)ccc32)cc1 [Compound 8] | > 3 | – | > 3 | –
9 | [N-]=[N+]=NCc1ccc(/C=C2\C=C(CC(=O)NCc3ccc(NC(=O)CBr)cc3)c3cc(F)ccc32)cc1 [Compound 31] | > 3 | – | > 3 | –
10 | CSc1ccc(/C=C2\C=C(CC(=O)NCc3ccccc3[N+](=O)[O-])c3cc(F)ccc32)cc1 [Compound 28] | > 3 | – | > 3 | –
11 | CSc1ccc(/C=C2\C=C(CC(=O)NCc3ccccc3N)c3cc(F)ccc32)cc1 [Compound 14] | > 3 | – | > 3 | –
12 | O=C(CC1=C/C(=C\c2ccccc2)c2ccc(F)cc21)NCc1ccccc1 [Compound 34] | – | – | – | 5.4 ± 0.5
13 | CSc1ccc(/C=C2\C=C(CC(=O)NCc3ccc(C(F)(F)F)cc3)c3cc(F)ccc32)cc1 [Compound 24] | > 3 | – | > 3 | –
14 | O=C(CC1=C/C(=C\C2CCCCC2)c2ccc(F)cc21)NCc1ccccc1 [Compound 38] | – | – | – | 6.7 ± 0.1
15 | CSc1ccc(/C=C2\C=C(CC(=O)NCc3cccc([N+](=O)[O-])c3)c3cc(F)ccc32)cc1 [Compound 27] | > 3 | – | > 3 | –
16 | CSc1ccc(/C=C2\C=C(CC(=O)N[C@@H](C)c3ccccc3)c3cc(F)ccc32)cc1 [Compound 7] | > 3 | – | > 3 | –
17 | CSc1ccc(/C=C2\C=C(CC(=O)Nc3ccccc3)c3cc(F)ccc32)cc1 [Compound 2] | > 3 | – | > 3 | –
18 | C[S+]([O-])c1ccc(/C=C2\C=C(CC(=O)NCc3ccccc3)c3cc(F)ccc32)cc1 (centres unmarked) [Compound 32] | – | 6 ± 1 | – | 2.4 ± 0.2
19 | CSc1ccc(/C=C2\C=C(CC(=O)NCc3cccc(C)c3)c3cc(F)ccc32)cc1 [Compound 18] | > 3 | – | > 3 | –
20 | CSc1ccc(/C=C2\C=C(CC(=O)NCCCc3ccccc3)c3cc(F)ccc32)cc1 [Compound 5] | > 3 | – | > 3 | –
21 | CSc1ccc(/C=C2\C=C(CC(=O)NCCc3ccccc3)c3cc(F)ccc32)cc1 [Compound 4] | > 3 | – | > 3 | –
22 | COc1ccc(NC(=O)CC2=C/C(=C\c3ccc(SC)cc3)c3ccc(F)cc32)cc1 [Compound 11] | > 3 | – | > 3 | –
23 | O=C(O)CC1=C/C(=C\c2ccc(C(=O)O)cc2)c2ccc(F)cc21 [Compound 36] | – | – | – | 6.4 ± 0.6

The next lines start with results.

Row | EC50 [1, 3] [µM] | EC50 [1, 5] [µM] | Structure (SMILES) | EC50 [2, 4] [µM] | EC50 [2, 6] [µM]
24 | > 3 | – | CSc1ccc(/C=C2\C=C(CC(=O)NCc3ccccc3C)c3cc(F)ccc32)cc1 [Compound 19] | > 3 | –
25 | > 3 | – | CSc1ccc(/C=C2\C=C(CC(=O)NCc3ccncc3)c3cc(F)ccc32)cc1 [Compound 9] | > 3 | –
26 | > 3 | – | CSc1ccc(/C=C2\C=C(CC(=O)Nc3ccc(F)cc3Cl)c3cc(F)ccc32)cc1 [Compound 10] | > 3 | –
27 | > 3 | – | CSc1ccc(/C=C2\C=C(CC(=O)NCc3ccc(N)cc3)c3cc(F)ccc32)cc1 [Compound 12] | 2.3 ± 0.03 | –
28 | 3.9 ± 0.9 | – | CSc1ccc(/C=C2\C=C(CC(=O)NCc3ccccc3)c3cc(F)ccc32)cc1 [Compound 3] | 1.1 ± 0.7 | –
29 | 0.18 ± 0.04 | – | CSc1ccc(/C=C2\C=C(CC(=O)NCc3ccc(C(=O)c4ccccc4)cc3)c3cc(F)ccc32)cc1 [Compound 30] | 0.04 ± 0.02 | –
30 | 449 ± 97.6 | – | COc1ccc2c(c1)c(CC(=O)O)c(C)n2C(=O)c1ccc(Cl)cc1 [Indomethacin, indomethacin, reference compound] | 162 ± 11 | –
31 | 0.8 ± 0.1 | – | CSc1ccc(/C=C2\C=C(CC(=O)NCc3ccc(Cl)cc3)c3cc(F)ccc32)cc1 [Compound 20] | 0.63 ± 0.07 | –
32 | > 3 | – | [N-]=[N+]=NCc1ccc(/C=C2\C=C(CC(=O)NCc3ccc(C4(c5ccccc5)CO4)cc3)c3cc(F)ccc32)cc1 (centres unmarked) [Compound 29] | > 3 | –
33 | 1.2 ± 0.2 | – | CSc1ccc(/C=C2\C=C(CC(=O)NCc3ccc(O)cc3)c3cc(F)ccc32)cc1 [Compound 15] | 0.1 ± 0.04 | –
34 | 2.08 ± 0.08 | – | CSc1ccc(/C=C2\C=C(CC(=O)NCc3cccc(N)c3)c3cc(F)ccc32)cc1 [Compound 13] | 0.99 ± 0.03 | –
35 | 109 ± 10 | – | CSc1ccc(/C=C2/C(C)=C(CC(=O)O)c3cc(F)ccc32)cc1 [Sulindac sulfide, reference compound] | 98.2 ± 1.4 | –
36 | 1.2 ± 0.1 | – | CSc1ccc(/C=C2\C=C(CC(=O)NCc3ccc(C)cc3)c3cc(F)ccc32)cc1 [Compound 17] | 0.73 ± 0.06 | –
37 | 1.47 ± 0.03 | – | CSc1ccc(/C=C2\C=C(CC(=O)NCc3cccc(O)c3)c3cc(F)ccc32)cc1 [Compound 16] | 0.83 ± 0.06 | –
38 | 2.1 ± 0.7 | – | CSc1ccc(/C=C2\C=C(CC(=O)NCc3ccc([N+](=O)[O-])cc3)c3cc(F)ccc32)cc1 [Compound 26] | 0.54 ± 0.07 | –
39 | 1.3 ± 0.2 | – | CSc1ccc(/C=C2\C=C(CC(=O)NCc3ccc(Br)cc3)c3cc(F)ccc32)cc1 [Compound 22] | 0.67 ± 0.07 | –
